Measurements taken from patent US8497361B2, “Topoisomerase binding probe and method of use” (priority 2010, dated 2013).

What was measured:
[1] = molecular target: F. tularensis GyrB (Francisella tularensis subsp. tularensis, UniProt Q5NHE7); assay: biochemical; assay type: binding
[2] = molecular target: T1, E. coli gyrase A2B2 heterotetramer (Escherichia coli, UniProt P0AES6); assay: Gyrase activity assay (supercoiling of relaxed plasmid DNA); assay type: biochemical; details: 50 μM compound, 0.5 μg relaxed DNA, 1 hour at 37° C., agarose gel
T1 construct: purchased Topogen

Sequence of F. tularensis GyrB (Q5NHE7 1-805): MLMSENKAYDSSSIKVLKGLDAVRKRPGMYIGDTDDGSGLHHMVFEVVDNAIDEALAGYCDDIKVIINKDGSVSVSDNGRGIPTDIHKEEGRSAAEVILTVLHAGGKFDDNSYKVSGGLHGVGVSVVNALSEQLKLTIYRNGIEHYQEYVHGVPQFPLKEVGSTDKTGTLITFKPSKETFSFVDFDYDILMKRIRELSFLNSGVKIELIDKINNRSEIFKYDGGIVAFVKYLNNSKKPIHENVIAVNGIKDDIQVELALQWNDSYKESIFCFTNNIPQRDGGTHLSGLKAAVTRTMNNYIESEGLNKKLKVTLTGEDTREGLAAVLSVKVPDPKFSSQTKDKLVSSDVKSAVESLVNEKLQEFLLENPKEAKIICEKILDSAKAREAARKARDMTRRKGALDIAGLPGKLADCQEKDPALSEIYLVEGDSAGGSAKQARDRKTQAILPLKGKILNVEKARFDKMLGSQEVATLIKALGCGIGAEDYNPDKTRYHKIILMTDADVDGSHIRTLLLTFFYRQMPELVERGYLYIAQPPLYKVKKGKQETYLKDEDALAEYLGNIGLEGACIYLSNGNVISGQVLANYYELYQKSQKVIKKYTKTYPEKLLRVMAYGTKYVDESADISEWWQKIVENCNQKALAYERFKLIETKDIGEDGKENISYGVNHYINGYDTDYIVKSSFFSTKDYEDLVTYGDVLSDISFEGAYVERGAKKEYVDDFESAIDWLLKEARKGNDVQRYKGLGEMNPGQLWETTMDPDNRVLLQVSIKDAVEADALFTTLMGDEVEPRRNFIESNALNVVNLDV

Compound | Ki [1] [µM] | inhibition of supercoiling of relaxed DNA [2]
COc1cccc2c1C(=O)c1c(O)c3c(c(O)c1C2=O)C[C@@](O)(C(=O)CO)C[C@@H]3O[C@H]1C[C@H](N)[C@H](O)[C@H](C)O1 [doxorubicin] | 0.094 | inhibit supercoiling to the level of the no gyrase control
COc1cccc2c1C(=O)c1c(O)c3c(c(O)c1C2=O)C[C@@](O)(C(C)=O)C[C@@H]3O[C@H]1C[C@H](N)[C@H](O)[C@H](C)O1 [daunorubicin] | 0.444 | less clear
CC(=O)[C@]1(O)Cc2c(O)c3c(c(O)c2[C@@H](O[C@H]2C[C@H](N)[C@H](O)[C@H](C)O2)C1)C(=O)c1ccccc1C3=O [idarubicin] | 0.48 | less clear
COc1cccc2c1C(=O)c1c(O)c3c(c(O)c1C2=O)C[C@@](O)(C(=O)CO)C[C@@H]3O[C@H]1C[C@H](N)[C@@H](O)[C@H](C)O1 [epirubicin] | 0.386 | inhibit supercoiling to the level of the no gyrase control
